Data on six molecules can be found in patent publication US7666677B2, “Production of stilbenes in plant hairy root cultures” (priority 2006, dated 2010).

Data set [1] concerns hairy root cultures of peanut cv. Andru II. The data set can be described thus: Elicitation of peanut hairy root cultures, TLC/HPTLC of ethyl acetate extracts of the medium. In kind it is cell-based, Arachis hypogaea. The note with it: for fluorescent compounds induced in culture medium (TLC, UV 365 nm): all cv. Andru II hairy root lines tested, 12-day cultures, 600 μM copper sulfate or 10.2 mM sodium acetate; for fluorescent compounds induced in culture medium (TLC, UV 365 nm) / fluorescent products induced in culture medium (TLC): 24 hours; for fluorescent products induced in culture medium (TLC): line 2, 12-day culture, sodium acetate 10.2 mM, chitosan 10 mg/L, copper sulfate 600 μM, laminarin 1 mg/ml, cellulase 1 or 10 μg/ml; for color change of the root tissue and medium: lines 2, 3, 5 and 6 of cv. Andru II, elicitors applied 24 hours. The procedure: Establishment of hairy root cultures. Seeds of peanuts (Arachis hypogaea) cvs. Andru II and Hull (kindly provided by Dr. Daniel Gorbet, University of Florida) were surface sterilized as follows. Seeds were presoaked for 2 minutes in sterile water containing 0.003% Ivory™ detergent; immersed for 15 minutes in sterilization solution (50% Clorox™, 0.003% Ivory™ detergent) and rinsed in sterile water. To minimize Chlorox™ damage to the embryo, the test was aseptically removed and seeds were further rinsed in two changes of sterile water over a 15 minute period. Disinfected seeds were placed individually on plates containing B5 medium to allow emergence of the radicle and to screen for viable healthy seedlings. Germinated seedlings were transferred to Magenta™ boxes containing B5 medium and allowed to grow in continuous light at 28° C. for 15 to 21 days. Explants used for hairy root production were harvested following expansion of two true leaves.
Cotyledon, hypocotyl, leaf blade, stem and petiole explants were evaluated. Whole, intact plantlets were also tested. […] Intact seedlings and isolated explants were then evaluated for response to Agrobacterium infection. Three strains of Agrobacterium were tested: A. rhizogenes ATCC 15834, A. rhizogenes R1000 and A. tumefaciens EHA105 containing pRYG (containing rolA, rolB and rolC genes, Komarnytsky et al., 2004) plasmid. The latter plasmid was kindly provided by Dr. Ilya Raskin (Rutgers University, New Jersey) and mobilized into A. tumefaciens by freeze-thaw method (Holsters et al., 1978). Intact seedlings were inoculated with agrobacteria at the stem, petiole, or cotyledonary node. All other isolated explants were inoculated via epidermal incisions as described before (Medina-Bolivar et al., 2003; Medina-Bolivar and Cramer, 2004). Inoculated intact seedlings and explants were maintained in B5 medium plates under constant light at 28° C. Hairy roots developed at the inoculation site were harvested and transferred to B5 medium plates containing 600 mg/l cefotaxime, and maintained at 28° C. under continuous darkness. Roots were subcultured twice in this medium prior to transfer to antibiotic-free medium. Liquid hairy root cultures were established by inoculating ten 1-cm root tips into 250 ml flasks containing 50 ml of B5 medium. Roots were subcultured every 2 weeks and maintained on an orbital shaker at 90 rpm, 28° C. and continuous darkness.
(§1) Elicitation of hairy root cultures. […] All elicitors were dissolved in water and filter sterilized, except for chitosan which was dissolved in 1 M acetic acid. Following elicitation, all media was collected and frozen at −20° C. All root tissue was collected, fresh weight recorded and roots then rapidly frozen in liquid nitrogen prior to storage at −80° C. Controls included hairy root cultures incubated 24 hours with equivalent volumes of water or acetic acid as well as non-elicited media samples collected from the 12-day hairy root cultures prior to initiating the elicitation procedure. […] Media and root tissue were collected, processed and stored as outlined above.
(§2) Extraction of resveratrol from culture medium. Media samples were thawed (50 ml) and partitioned with 30 ml ethyl acetate in a separatory funnel. The organic phase was recovered and dried to completeness under nitrogen stream using a RapidVap N2 evaporation system (Labconco) at 40° C. and 40% rotor speed. These dried samples were resuspended in 50 μl of ethyl acetate for further analysis.
Qualitative TLC analysis. Aliquots of the extracts and pure, authentic standards of trans-resveratrol (Sigma Co, St. Louis, Mo.), polydatin—same chemical as piceid—(ChromaDex, Santa Ana, Calif.), pterostilbene (Sigma) and piceatannol (Sigma) were spotted on a 20×20 cm silica gel 60 CF254 TLC plates (Merck) or a 10×10 silica gel 60 CF254 HPTLC plates (Merck).

Data set [2] is described as follows: Solubility of resveratrol in organic solvents. Format: physicochemical. The source says: Qualitative analyses of elicited peanut hairy root cultures. In an effort to rapidly assess the various hairy root lines for resveratrol production and secretion into the culture medium, we adapted a thin layer chromatographic method (TLC) that leverages the fluorescent nature of resveratrol at defined excitation wavelengths (Nepote et al., 2004). In a preliminary experiment, the culture medium was lyophilized to completeness and the dried medium was resuspended in methanol. This extract produced a very viscous solution which was difficult to resolve by TLC. In addition, the high content of carbohydrates in this sample appeared to bind the phenolic compounds (i.e. resveratrol). In an effort to overcome these issues, we optimized the purification of resveratrol in the culture medium by determining the solubility of resveratrol in various organic solvents. […] Initial analyses of the ethyl acetate extracts of hairy root media were compared by TLC to pure authentic references standards of trans-resveratrol and piceid. […] Andru II hairy root lines tested. The strongest fluorescent chemical was detected in the medium of sodium acetate-elicited hairy roots and generated an Rf of 0.83 corresponding to that of authentic trans-resveratrol. […]

Data set [3] concerns hairy root cultures of peanut, line 2. As to the method: as §1, §2
Quantitative analysis of resveratrol and pterostilbene by GC-MS. Dried medium or root tissue extracts (0.1 mg) were derivatized with 500 μL of a mixture of bis (trimethylsilyl)trifluoroacetamide:dimethyl formamide (1:1), heated at 70° C. for 40 min. After cooling to room temperature, samples were analyzed by gas chromatography/mass spectrometry (GC-MS) on a JEOL GCMate II system (JEOL USA, Inc., USA). […] The GC capillary column used was DB-5 (0.25 mm i.d., 0.25 […], 30 m length; Agilent Technologies, USA). The carrier gas was ultra high purity helium (nexAir, USA), 1 mL/min flow rate. The inlet (splitless), GC interface, and ion chamber temperatures were 250° C., 250° C., and 230° C., respectively. The injection volume was 2 μL.
Quantitative analysis of resveratrol and pterostilbene by GC-MS. […] Cis- and trans-resveratrol were monitored for m/z 444 (and 429, 207, 147 as qualifier ions). Cis- and trans-pterostilbene were monitored for m/z 328 (and 313, 296, 156 as qualifier ions). Quantitation was performed using external standards of a commercial sample of trans-resveratrol (Sigma) and a synthetic sample of trans-pterostilbene (synthesized from methylation of resveratrol). The cis isomers were obtained by UV-irradiation (λ 306 nm) of an ethanolic solution the trans isomers (1 mg/mL) for 24 hours.
Laboratory recovery of stilbenes. […] Therefore we have calculated resveratrol recoveries based on the dry weight (DW) of the ethyl acetate extract of the culture media.

For data set [4], the system named is peanut hairy roots derived from the Hull cultivar. The note with it: 10.2 mM sodium acetate, 24 hours, medium extract. The procedure: Using the materials and methods outlined above, resveratrol and resveratrol derivatives were elicited in the peanut hairy roots derived from the Hull cultivar. […] Control roots were not elicited. Elicited hairy root of peanut cv. Andru II (line pRYG-J) and cv. Hull s were cultured in B5 medium. […] Analysis was done under UV light (254 and 365 nm).

Data set [5] relates to hairy roots of muscadine grape. The following applies: 10.2 mM sodium acetate, 24 hours, medium extract. The procedure: PCR analyses of hairy roots of muscadine grape (Vitis rotundifolia) cvs. Roots were analyzed for the presence of rol C and aux 2 genes. Hairy roots were cultured in B5 medium. […] Analysis was done under UV light (365 nm).
Data set [6] relates to hairy root cultures of N. benthamiana.
Excerpt: Seeds of Nicotiana benthamiana were surface sterilized and germinated on MS semi-solid medium. Axillary nodes were harvested from the axenic seedlings and used to establish plantlets. The latter were then micropropagated in MS medium and leaves from these plantlets were used as explants for Agrobacterium rhizogenes inoculations. Leaves were harvested from 2-3 week old plantlets and placed on B5 medium. The leaves were inoculated in the midrib with A. rhizogenes ATCC 15834. Two to 3 weeks after inoculation hairy roots initiated at the inoculation site. The roots were then transferred to B5 medium with cefotaxime to eliminate agrobacteria. After several subcultures in this medium, the roots were transferred to antibiotic-free B5 medium. Confirmation of transformation with A. rhizogenes was done by PCR. […]
To test for elicitation of stilbenes (pinosylvin, resveratrol and their derivatives), hairy root cultures of N. benthamiana lines 3NB, 4NB, 5NB and 6NB were grown for either 2 or 3 weeks as described above. […] Stilbenes were detected with a coupled diode away and fluorescence (excitation 330 nm; emission 374 nm) detector.
Further analyses were conducted by reverse phase HPLC. […] Stilbenes were detected with coupled diode array and fluorescence (excitation 330 nm; emission 374 nm) detectors. […] These compounds were further analyzed by HPLC-ESI-mass spectrometry.
The mark [7] stands for this setting: line 2, 15-day culture, 48 hours after elicitation.

“And” between values parts separate entries of the source, which are not always exact repeats. Identical values can stand only once.

As for `O=S(=O)([O-])[O-].[Cu+2]` [copper sulfate], in data set [1], the “fluorescent compounds induced in culture medium (TLC, UV 365 nm)” value is on record as “induced production of blue fluorescent compounds”; the “fluorescent products induced in culture medium (TLC)” value (“fluorescent products induced” for short) is on record as “induced a fluorescent chemical of Rf 0.73”; the “color change of the root tissue and medium” value was “induced the browning on the tissue and of the medium”.

Consider `Oc1ccc(/C=C/c2cc(O)cc(O)c2)cc1` [resveratrol, trans-3,4′,5-trihydroxystilbene], for which the “solubility of resveratrol in ethyl acetate” value in data set [2] is “good solubility”.

Regarding `CC(=O)[O-].[Na+]` [sodium acetate], in data set [1], the “fluorescent compounds induced in culture medium (TLC, UV 365 nm)” value is recorded as “induced production of blue fluorescent compounds”; the “fluorescent products induced” value is reported as “induced two products”; the “color change of the root tissue and medium” value was “did not affect the color of the roots”. Further, in data set [1] (setting [7]), the “presence of resveratrol in culture medium, time course” value was “decreased” and the “pterostilbene levels in culture medium, time course” value is given as “increased”. Also, the “trans-resveratrol and pterostilbene levels in culture medium, time course” value in data set [1] (line 2, 15-day culture, 72 hours post elicitation) is reported as “decreased”. The “sodium acetate concentration with the most effective response (dose response, HPTLC)” value in data set [1] (line 2, 24 hours, 0 to 51 mM tested) is recorded as “about 10 mM”. The “increase of resveratrol above non-elicited culture extracts” value in data set [3] (culture medium extracts) is listed as roughly 60 fold. In addition, in data set [3] (elicited cultures), the “cis-resveratrol levels in elicited cultures, root tissue (average)” value was found to be 10 ng/mg root tissue extract and the “trans-resveratrol remaining in the root tissue” value is 0.2-1.1 μg/mg extract DW. Further, the “trans-Resveratrol, Medium” value in data set [3] (elicited cultures, ethyl acetate extract of medium, mean of two determinations) is 97992 ng per mg extract and 85282 ng per mg extract and 50339 ng per mg extract. Moreover, the “cis-Resveratrol, Root tissue” value in data set [3] (elicited cultures, extract of root tissue, mean of two determinations) came out at 10 ng per mg extract. Also, in data set [3] (estimating 6 mg medium ethyl acetate extract per gram root tissue DW), the “production rate of trans-resveratrol per gram DW of root tissue” value was 300 to 588 µg. Also, the “share of total trans-resveratrol secreted into the culture medium” value in data set [3] (sodium acetate elicitation) is recorded as “approximately 99%”. The “production of resveratrol and derivatives (HPTLC)” value in data set [4] was “induced the production of resveratrol and derivatives”. Further, in data set [5], the “elicitation of resveratrol and derivatives (HPTLC)” value is “achieved”. Further, the “induced compound by reverse phase HPLC” value in data set [6] (24 and 48 hours after elicitation) is “induced production of a major fluorescence compound”. In addition, the “production and secretion of stilbene-like fluorescent compounds (HPTLC)” value in data set [6] (lines 3NB, 4NB, 5NB, 6NB, 10.2 mM sodium acetate, 24 or 48 hours) was “induced production and secretion of compounds with fluorescent characteristics of stilbene compounds”.

As to cellulase, the “fluorescent products induced” value in data set [1] was “no fluorescent chemicals were detected”.

As for chitosan, the “fluorescent products induced” value in data set [1] is listed as “induced the two products as observed for sodium acetate elicitation”.

Consider laminarin, for which the “fluorescent products induced” value in data set [1] is on record as “induced production of a blue fluorescent chemical with an Rf 0.78”.
